Measured values as given in patent US6525001B1, “Substituted pyrimidine and pyridine herbicides” (Mid-American Commercialization Corporation, priority 1997, dated 2003).

Tests used:
Assay type in all cases: in vivo
[1] = test system: redroot pigweed (Amaranthus retroflexus); test: Test C; design: key: 0 was no effect; 100 was complete control; conditions: PREEMERGENCE
[2] = test system: large crabgrass (Digitaria sanguinalis); test: Test C; design: key: 0 was no effect; 100 was complete control; conditions: PREEMERGENCE
[3] = test system: lambsquarters (Chenopodium album); test: Test C; design: key: 0 was no effect; 100 was complete control; conditions: PREEMERGENCE
[4] = test system: sandbur (Cenchrus echinatus); test: Test E pre-/postemergence/post directed; conditions: PREEMERGENCE
Description: (§1) Seeds, tubers, or plant parts of alexandergrass (Brachiaria plantaginea), annual bluegrass (Poa annua), arrowleaf sida (Sida rhombifolia), barnyardgrass (Echinochloa crus-galli), bermudagrass (Cynodon dactylon), citrus (Citrus sinensis), common chickweed (Stellaria media), common purslane (Portulaca oleracea), common ragweed (Ambrosia elatior), common groundsel (Senecio vulgaris), dallisgrass (Paspalum dilatatum), goosegrass (Eleusine indica), green foxtail (Setaria viridis), guineagrass (Panicum maximum), itchgrass (Rottboellia exaltata), johnson grass (Sorghum halepense), kochia (Kochia scoparia), large crabgrass (Digitaria sanguinalis), leafy spurge (Euphorbia esula), pitted morningglory (Ipomoea lacunosa), purple nutsedge (Cyperus rotundus), quackgrass (Agropyron repens), Russian thistle (Salsola kali), sandbur (Cenchrus echinatus), sourgrass (Trichachne insularis), Spanishneedles (Bidens bipinnata), sugarcane (Saccharum officinarum), surinam grass (Brachiaria decumbens) and tall mallow (Malva sylvestris) were planted into greenhouse pots of flats containing greenhouse planting medium. Plant species were grown grown in separate pots or individual compartments. Preemergence applications were made within one day of planting the seed or plant part. Postemergence applications were applied when the plants were in the two to four leaf stage (three to twenty cm).
(§2) Test chemicals were formulated in a non-phytotoxic solvent mixture which included a surfactant and applied preemergence to the soil surface, postemergence to the plants or as a post directed spray to plants and soil at the base of the target species. Untreated control plants and treated plants were placed in the greenhouse and visually evaluated for injury 13 to 21 days after herbicide application. Plant response ratings, summarized in Table E, are based on a 0 to 100 scale where 0 is no injury and 100 is complete control. A dash (−) response means no test result.

[5] = test system: johnson grass (Sorghum halepense); test: Test E pre-/postemergence/post directed; conditions: PREEMERGENCE
Description: as §1, §2

[6] = test system: common groundsel (Senecio vulgaris); test: Test E pre-/postemergence/post directed; conditions: PREEMERGENCE, Rate 32 g/ha
Description: as §1, §2

[7] = test system: alexandergrass (Brachiaria plantaginea); test: Test E pre-/postemergence/post directed; conditions: PREEMERGENCE
Description: as §1, §2

[8] = test system: Spanishneedles (Bidens bipinnata); test: Test E pre-/postemergence/post directed; conditions: PREEMERGENCE
Description: as §1, §2

[9] = test system: itchgrass (Rottboellia exaltata); test: Test E pre-/postemergence/post directed; conditions: PREEMERGENCE
Description: as §1, §2

[10] = test system: large crabgrass (Digitaria sanguinalis); test: Test E pre-/postemergence/post directed; conditions: PREEMERGENCE
Description: as §1, §2

[11] = test system: common ragweed (Ambrosia elatior); test: Test E pre-/postemergence/post directed; conditions: PREEMERGENCE
Description: as §1, §2

[12] = test system: pitted morningglory (Ipomoea lacunosa); test: Test E pre-/postemergence/post directed; conditions: PREEMERGENCE
Description: as §1, §2

[13] = test system: bermudagrass (Cynodon dactylon); test: Test E pre-/postemergence/post directed; conditions: PREEMERGENCE
Description: as §1, §2

[14] = test system: surinam grass (Brachiaria decumbens); test: Test E pre-/postemergence/post directed; conditions: PREEMERGENCE
Description: as §1, §2

[15] = test system: purple nutsedge (Cyperus rotundus); test: Test E pre-/postemergence/post directed; conditions: PREEMERGENCE
Description: as §1, §2

[16] = test system: ivyleaf morningglory (Ipomoea hederacea); test: Test C; design: key: 0 was no effect; 100 was complete control; conditions: PREEMERGENCE
[17] = test system: wild poinsettia (Euphorbia heterophylla); test: Test C; conditions: PREEMERGENCE
[18] = test system: barnyardgrass (Echinochloa crus-galli); test: Test C; design: key: 0 was no effect; 100 was complete control; conditions: PREEMERGENCE
[19] = test system: fall panicum (Panicum dichotomiflorum); test: Test C; design: key: 0 was no effect; 100 was complete control; conditions: PREEMERGENCE
[20] = test system: eastern black nightshade (Solanum ptycanthum); test: Test C; conditions: PREEMERGENCE
[21] = test system: arrowleaf sida (Sida rhombifolia); test: Test C; design: key: 0 was no effect; 100 was complete control; conditions: PREEMERGENCE

## Cc1cnc(-n2ccc(C(F)(F)F)n2)nc1Cc1cccc(OC(F)(F)F)c1 [Compound 42]
[1]; Rate 35 g/ha
  Plant response rating, Redroot pigweed: 100
[1]; Rate 70 g/ha
  Plant response rating, Redroot pigweed: 100
[1]; Rate 140 g/ha
  Plant response rating, Redroot pigweed: 100
[2]; Rate 35 g/ha
  Plant response rating, Large crabgrass: 80
[2]; Rate 70 g/ha
  Plant response rating, Large crabgrass: 100
[2]; Rate 140 g/ha
  Plant response rating, Large crabgrass: 100
[3]; Rate 35 g/ha
  Plant response rating, Lambsquarters: 85
[3]; Rate 70 g/ha
  Plant response rating, Lambsquarters: 100
[3]; Rate 140 g/ha
  Plant response rating, Lambsquarters: 100
[4]; Rate 64 g/ha
  Plant response rating, Sandbur: 40
[4]; Rate 125 g/ha
  Plant response rating, Sandbur: 70
[4]; Rate 250 g/ha
  Plant response rating, Sandbur: 70
[5]; Rate 32 g/ha
  Plant response rating, Johnsongrass: 10
[5]; Rate 64 g/ha
  Plant response rating, Johnsongrass: 90
[5]; Rate 125 g/ha
  Plant response rating, Johnsongrass: 90
[5]; Rate 250 g/ha
  Plant response rating, Johnsongrass: 95
[6]
  Plant response rating, Com. groundsel: 90
[7]; Rate 32 g/ha
  Plant response rating, Alexandergrass: 20
[7]; Rate 64 g/ha
  Plant response rating, Alexandergrass: 40
[7]; Rate 125 g/ha
  Plant response rating, Alexandergrass: 90
[7]; Rate 250 g/ha
  Plant response rating, Alexandergrass: 90
[8]; Rate 32 g/ha
  Plant response rating, Spanishneedles: 20
[8]; Rate 64 g/ha
  Plant response rating, Spanishneedles: 20
[8]; Rate 250 g/ha
  Plant response rating, Spanishneedles: 90
[9]; Rate 32 g/ha
  Plant response rating, Itchgrass: 35
[9]; Rate 64 g/ha
  Plant response rating, Itchgrass: 65
[9]; Rate 125 g/ha
  Plant response rating, Itchgrass: 80
[9]; Rate 250 g/ha
  Plant response rating, Itchgrass: 70
[10]; Rate 32 g/ha
  Plant response rating, Large crabgrass: 50
[10]; Rate 64 g/ha
  Plant response rating, Large crabgrass: 90
[11]; Rate 32 g/ha
  Plant response rating, Com. ragweed: 50
[11]; Rate 64 g/ha
  Plant response rating, Com. ragweed: 75
[11]; Rate 125 g/ha
  Plant response rating, Com. ragweed: 90
[11]; Rate 250 g/ha
  Plant response rating, Com. ragweed: 90
[12]; Rate 64 g/ha
  Plant response rating, P. morninglory: 30
[12]; Rate 125 g/ha
  Plant response rating, P. morninglory: 65
[12]; Rate 250 g/ha
  Plant response rating, P. morninglory: 75
[13]; Rate 32 g/ha
  Plant response rating, Bermudagrass: 90
[13]; Rate 64 g/ha
  Plant response rating, Bermudagrass: 95
[13]; Rate 125 g/ha
  Plant response rating, Bermudagrass: 98
[13]; Rate 250 g/ha
  Plant response rating, Bermudagrass: 98
[14]; Rate 32 g/ha
  Plant response rating, Surinam grass: 40
[14]; Rate 64 g/ha
  Plant response rating, Surinam grass: 50
[15]; Rate 32 g/ha
  Plant response rating, Purple nutsedge: 20
[15]; Rate 64 g/ha
  Plant response rating, Purple nutsedge: 30
[15]; Rate 125 g/ha
  Plant response rating, Purple nutsedge: 30
[15]; Rate 250 g/ha
  Plant response rating, Purple nutsedge: 30
[16]; Rate 35 g/ha
  Plant response rating, I. morningglory: 30
[16]; Rate 70 g/ha
  Plant response rating, I. morningglory: 70
[16]; Rate 140 g/ha
  Plant response rating, I. morningglory: 100
[17]; Rate 35 g/ha
  Plant response rating, Wild poinsettia: 25
[17]; Rate 70 g/ha
  Plant response rating, Wild poinsettia: 30
[17]; Rate 140 g/ha
  Plant response rating, Wild poinsettia: 85
[18]; Rate 35 g/ha
  Plant response rating, Barnyardgrass: 5
[18]; Rate 70 g/ha
  Plant response rating, Barnyardgrass: 10
[18]; Rate 140 g/ha
  Plant response rating, Barnyardgrass: 100
[19]; Rate 35 g/ha
  Plant response rating, Fall panicum: 50
[19]; Rate 70 g/ha
  Plant response rating, Fall panicum: 85
[19]; Rate 140 g/ha
  Plant response rating, Fall panicum: 100
[20]; Rate 35 g/ha
  Plant response rating, E. blacknightsh: 90
[20]; Rate 70 g/ha
  Plant response rating, E. blacknightsh: 95
[20]; Rate 140 g/ha
  Plant response rating, E. blacknightsh: 95
[21]; Rate 35 g/ha
  Plant response rating, Arrowleaf sida: 95
[21]; Rate 70 g/ha
  Plant response rating, Arrowleaf sida: 95
[21]; Rate 140 g/ha
  Plant response rating, Arrowleaf sida: 100
